Source: US20120029054A1, “RNA Interference Mediated Inhibition of GATA Binding Protein 3 (GATA3) Gene Expression Using Short Intefering Nucleic Acid (siNA)” (Merck Sharp & Dohme Corp., priority 2009, published 2012)
[invAb] = inverted abasic unit; m = 2'-O-methyl; r = 2'-OH (RNA); f = 2'-fluoro

Columns and labels:
GATA3 mRNA [1] = assay: GATA3 mRNA knock-down (Taqman qRT-PCR) after RNAiMax transfection of human MCF7 cells; screen and IC50 dose response; format: cell-based; settings: 10 nM siNA, MCF7 cells, 24 hrs
Procedure: MCF7 (human; ATCC cat# HTB-22): Cells were cultured at 37° C. in the presence of 5% CO2 and grown in Eagle's Minimum Essential medium with supplemented with fetal bovine serum at a final concentration of 10% and 100 μg/mL of streptomycin and 100 U/mL penicillin.
(§1) Cells were plated in all wells of a tissue-culture treated, 96-well plate at a final count of 5000 cells/well in 100 μL of the appropriate culture media. The cells were cultured for 24 hours after plating at 37° C. in the presence of 5% CO2.
(§2) After 24 hours, complexes containing siNA and RNAiMax were created as follows: A solution of RNAiMax diluted 33-fold in OPTI-MEM was prepared. In parallel, solutions of the siNAs for testing were prepared to a final concentration of 120 nM in OPTI-MEM. After incubation of RNAiMax/OPTI-MEM solution at room temperature for 5 min, an equal volume of the siNA solution and the RNAiMax solution were added together for each of the siNAs.
(§3) This solution was incubated at room temperature for 20 minutes. After incubation, 20 uL of the solution was added to each of the relevant wells. The final concentration of siNA in each well was 10 nM and the final volume of RNAiMax in each well was 0.3 ul.
(§4) The time of incubation with the RNAiMax-siNA complexes was 24 hours and there was no change in media between transfection and harvesting, unless otherwise indicated.
(§5) RNA was extracted from a 96-well plate using the TaqMan® Gene Expression Cells-to-CT™ Kit (Cat#4399002) with a modified protocol. Briefly, a 60 uL (1 plate) or 110 uL (2 plates) of the Lysis Solution with DNase I was dispensed into each well of the Lysis Buffer Plate (twin.tec full skirt plate). The lysis buffer and stop plates were stored at 4° C. until the cells were washed.
(§6) The plate was spun at 1100 rpm for 5 minutes. The culture medium was aspirated and discarded from the wells of the culture plate. The lysis was performed automatically using a BioMek FX instrument and method. After the Biomek method was completed, the lysis plate was incubated for 2 min. at room temperature. The lysis plate can be stored for 2 hours at 4° C., or at −20° C. or −80° C. for two months.
(§7) Each well of the reverse transcription plate required 10 uL of 2× reverse transcriptase Buffer, 1 uL of 20× reverse transcription enzyme and 2 uL of nuclease-free water. The reverse transcription master mix was prepared by mixing 2× reverse transcription buffer, 20× reverse transcription enzyme mix, and nuclease-free water. 13 uL of the reverse transcription master mix was dispensed into each well of the reverse transcription plate (semi-skirted). A separate reverse transcription plate was prepared for each cell plate. The plate was loaded onto a Biomek NX or Biomek FX Dual-96 and the Biomek method was run. The program is programmed to automatically added 7 uL of lysate from the cell lysis procedure described above into each well of the reverse transcription plate. The plate is sealed and spun on a centrifuge (1000 rpm for 30 seconds) to settle the contents to the bottom of the reverse transcription plate. The plate is placed in a thermocycler at 37° C. for 60 min, 95° C. for 5 min, and 4° C. until the plate is removed from the thermocycler. Upon removal, if not used immediately, the plate was frozen at −20° C.
(§8) A series of probes and primers were used to detect the various mRNA transcripts of the genes of β-Actin (human cell line only), and of GATA3 and GAPDH in mouse and human cell lines. All Taqman probes and primers for the experiments here-in described were supplied as pre-validated sets by Applied Biosystems, Inc. (see Table 2).
(§9) The assays were performed on an ABI 7900 instrument, according to the manufacturer's instructions. A TaqMan Gene Expression Master Mix (provided in the Cells-to-CT™, Applied Biosystems, Cat #4399002) was used. The PCR reactions were carried out at 50° C. for 2 min, 95° C. for 20 min followed by 40 cycles at 95° C. for 15 secs and 60° C. for 1 min. […]

GATA3 mRNA [2] = assay: GATA3 mRNA knock-down (Taqman qRT-PCR) after RNAiMax transfection of mouse RAG cells; format: cell-based; settings: 10 nM siNA, 24 hrs, average of 2 experiments
Procedure: RAG (murine; ATCC cat# CCL-142): Cells were cultured at 37° C. in the presence of 5% CO2 and grown in Eagle's Minimum Essential medium with supplemented with 10% of fetal bovine serum, 100 μg/mL of streptomycin, and 100 U/mL penicillin.
as §1, §2, §3, §4, §5, §6, §7, §8, §9

Row | Substance | % KD Human (GATA3 mRNA [1]; * Hs00231122_m1 Taqman Assay) | % KD Human (GATA3 mRNA [1]; ** Hs00922328_m1 Taqman Assay) | % KD Mouse (GATA3 mRNA [2]) [%] | % KD Human (GATA3 mRNA [1]; average of 3 experiments) [%]
1 | 30286-DC: GATA3 siNA duplex, human/mouse site 1956: sense B GcAGGAGcAGuAucAuGAA TTB (SEQ 125), antisense UUCAuGAuAcuGcuccuGcUU (SEQ 126) (sense GCAGGAGCAGUAUCAUGAATT; antisense UUCAUGAUACUGCUCCUGCUU; sense: DNA at AGT, 2'-fluoro at CU, [invAb] at 5' end, 3' end, backbone not given here; antisense: sugars from the 5' end rrrmfmmfmffmfffffmfmm, backbone not given here) | 45 ± 3* % | 40 ± 16** % | 66 ± 0 | 
2 | 30258-DC: GATA3 siNA duplex, site 990: sense B cAcGccAGcccGcAccucu TTB (SEQ 69), antisense AGAGGuGcGGGcuGGcGuGUU (SEQ 70) (sense CACGCCAGCCCGCACCUCUTT; antisense AGAGGUGCGGGCUGGCGUGUU; chemistry not fully specified) |  |  | −12 ± 4 | 0 ± 4
3 | 30273-DC: GATA3 siNA duplex, mouse site 1489: sense B cuuAucAAGcccAAGcGAA TTB (SEQ 99), antisense UUCGcuuGGGcuuGAuAAGUU (SEQ 100) (sense CUUAUCAAGCCCAAGCGAATT; antisense UUCGCUUGGGCUUGAUAAGUU; sense: DNA at AGT, 2'-fluoro at CU, [invAb] at 5' end, 3' end, backbone not given here; antisense: chemistry not given here) |  |  | 33 ± 1 | −3 ± 16
4 | 30245-DC: GATA3 siNA duplex, site 1829: sense B GccAuccAGccuGuccuuu TTB (SEQ 43), antisense AAAGGAcAGGcuGGAuGGcUU (SEQ 44) (sense GCCAUCCAGCCUGUCCUUUTT; antisense AAAGGACAGGCUGGAUGGCUU; chemistry not fully specified) |  |  | 20 ± 7 | 24 ± 2
5 | 30272-DC: GATA3 siNA duplex, mouse site 807: sense B GAGGuAuccuccGAcccAc TTB (SEQ 97), antisense GUGGGucGGAGGAuAccucUU (SEQ 98) (sense GAGGUAUCCUCCGACCCACTT; antisense GUGGGUCGGAGGAUACCUCUU; chemistry not fully specified) | 69 ± 3* % | 33 ± 19** % | 85 ± 0 | 
6 | 30259-DC: GATA3 siNA duplex, site 713: sense B cAucGAcGGucAAGGcAAc TTB (SEQ 71), antisense GUUGccuuGAccGucGAuGUU (SEQ 72) (sense CAUCGACGGUCAAGGCAACTT; antisense GUUGCCUUGACCGUCGAUGUU; chemistry not fully specified) |  |  | 60 ± 1 | 36 ± 2
7 | 30246-DC: GATA3 siNA duplex, site 1883: sense B GGGuuAGAGcccuGcucGA TTB (SEQ 45), antisense UCGAGcAGGGcucuAAcccUU (SEQ 46) (sense GGGUUAGAGCCCUGCUCGATT; antisense UCGAGCAGGGCUCUAACCCUU; chemistry not fully specified) |  |  | −1 ± 2 | −6 ± 19
8 | 30264-DC: GATA3 siNA duplex, site 690: sense B GAGGAGGuGGAuGuGcuuu TTB (SEQ 81), antisense AAAGcAcAuccAccuccucUU (SEQ 82) (sense GAGGAGGUGGAUGUGCUUUTT; antisense AAAGCACAUCCACCUCCUCUU; chemistry not fully specified) |  |  | −18 ± 0 | −20 ± 12
9 | 30251-DC: GATA3 siNA duplex, site 735: sense B GucccGcccuAcuAcGGAA TTB (SEQ 55), antisense UUCcGuAGuAGGGcGGGAcUU (SEQ 56) (sense GUCCCGCCCUACUACGGAATT; antisense UUCCGUAGUAGGGCGGGACUU; sense: DNA at AGT, 2'-fluoro at CU, [invAb] at 5' end, 3' end, backbone not given here; antisense: sugars from the 5' end rrrfmfmmfmmmmfmmmmfmm, backbone not given here) |  |  | −30 ± 18 | −127 ± 32
10 | 30271-DC: GATA3 siNA duplex, mouse site 1620: sense B GuAcuAcAAGcuucAuAAu TTB (SEQ 95), antisense AUUAuGAAGcuuGuAGuAcUU (SEQ 96) (sense GUACUACAAGCUUCAUAAUTT; antisense AUUAUGAAGCUUGUAGUACUU; chemistry not fully specified) |  |  | 70 ± 0 | 10 ± 11
11 | 30257-DC: GATA3 siNA duplex, site 1830: sense B ccAuccAGccuGuccuuuG TTB (SEQ 67), antisense CAAAGGAcAGGcuGGAuGGUU (SEQ 68) (sense CCAUCCAGCCUGUCCUUUGTT; antisense CAAAGGACAGGCUGGAUGGUU; chemistry not fully specified) |  |  | −4 ± 5 | −3 ± 3
12 | 30267-DC: GATA3 siNA duplex, mouse site 1324: sense B GGGuucGGAuGuAAGucGA TTB (SEQ 87), antisense UCGAcuuAcAuccGAAcccUU (SEQ 88) (sense GGGUUCGGAUGUAAGUCGATT; antisense UCGACUUACAUCCGAACCCUU; chemistry not fully specified) |  |  | 40 ± 1 | −13 ± 15
13 | 30277-DC: GATA3 siNA duplex, mouse site 1535: sense B cAuccuGcGcGAAcuGucA TTB (SEQ 107), antisense UGAcAGuucGcGcAGGAuGUU (SEQ 108) (sense CAUCCUGCGCGAACUGUCATT; antisense UGACAGUUCGCGCAGGAUGUU; sense: DNA at AGT, 2'-fluoro at CU, [invAb] at 5' end, 3' end, backbone not given here; antisense: sugars from the 5' end rrrfmmfffmfmfmmmmfmmm, backbone not given here) |  |  | 26 ± 4 | −4 ± 7
14 | 30278-DC: GATA3 siNA duplex, mouse site 720: sense B GGAAGAGGuGGAcGuAcuu TTB (SEQ 109), antisense AAGuAcGuCCAccucuuccUU (SEQ 110) (sense GGAAGAGGUGGACGUACUUTT; antisense AAGUACGUCCACCUCUUCCUU; sense: DNA at AGT, 2'-fluoro at CU, [invAb] at 5' end, 3' end, backbone not given here; antisense: chemistry not given here) |  |  | 60 ± 2 | −18 ± 5
15 | 30253-DC: GATA3 siNA duplex, site 644: sense B GGGccucAGccAcuccuAc TTB (SEQ 59), antisense GUAGGAGuGGcuGAGGcccUU (SEQ 60) (sense GGGCCUCAGCCACUCCUACTT; antisense GUAGGAGUGGCUGAGGCCCUU; chemistry not fully specified) |  |  | −6 ± 1 | −1 ± 11
